The values that follow come from patent publication US9512180B2, “Compstatin analogs” (THE REGENTS OF THE UNIVERSITY OF CALIFORNIA, priority 2012, dated 2016).

Each structure is given as a SMILES string. Bridge positions count the residues as written; N and C are the ends. Peptide text beside a SMILES is read from it.

Data set [1] concerns complement alternative pathway (AP). Put plainly: C3b ELISA (inhibition of C3b formation). In kind it is biochemical, human. The following applies: table 13; read-out: C3b ELISA IC50. Here is the method:
(§1) Inhibition of the complement alternative pathway (AP) by compstatin family peptides was assayed by ELISA. Peptides were dissolved in phosphate buffered saline (PBS, 150 mM). Initial peptide concentrations were calculated using the Beer-Lambert Law with an extinction coefficient of 5,500 (1/M·cm) for Trp and 5,470 (1/M·cm) for methylated-Trp present in the sequence, at 280 nm. Nunc Maxisorp 96-well plates were coated with 1 μg lipopolysaccharides (LPS) from Salmonella enteriditis for ˜16 h at room temperature. Plates were washed three times with PBS/0.05% Tween-20 (PBS-T) between each step. Plates were blocked with 4% bovine serum albumin (BSA) in PBS-T for 1 h at 37° C. Serial peptide dilutions were performed in 96-well plates, using gelatin veronal-buffered saline with 5 mM MgCl2 and 10 mM EGTA (GVBS-MgEGTA). Normal human serum (Complement Technology Inc., Tyler, Tex., USA) was diluted in GVBS-MgEGTA and mixed with compstatin serial dilutions to a final concentration of 30%. Serum diluted in GVBS-MgEGTA and GVBS (containing 20 mM EDTA) were used as positive and negative controls for complement activation, respectively. Dilutions were preincubated for 15 minutes at room temperature, transferred to ELISA plates, and incubated for 1 h at 37° C. Generation of C3b and C5b-9 were assayed using horseradish peroxidase (HRP)-conjugated anti-C3 (MP Biomedicals, Solon, Ohio, USA) and anti-05b-9 aEll (Abcam, Cambridge, Mass., USA), respectively. Plates were washed and incubated with either anti-C3-HRP (1:5000 in 1% BSA/PBS-T) or anti-05b-9 (1:1000 in 1% BSA/PBS-T) for 1 h at 37° C. For C5b-9 detection, primary antibody incubation was followed by incubation with anti-mouse-HRP (BioRad, Hercules, Calif., USA) for 1 h at 37° C. (1:5000 in 1% BSA/PBS-T). Bound C3b and C5b-9 were quantified using a 3,3′,5,5′-tetramethylbenzidine substrate solution containing urea hydrogen peroxide in 0.11 M sodium acetate buffer, followed by a 1 N H2SO4 acid stop. Plates were measured spectrophotometrically at 450 nm. Percent inhibition of C3b and C5b-9 deposition was plotted against peptide concentration and the data was fitted to a logistic dose response curve with Prism software (GraphPad, San Diego, Calif., USA) to determine IC50 values.
(§2) In all assays, MgEGTA was used to chelate Ca′ ions required for classical/lectin pathway complement activation, while providing Mg′ necessary for AP activation. ELISAs allow for direct detection of C3b and C5b-9 formed during AP activation, while erythrocyte lysis assays provide a functional assessment of AP-mediated hemolysis in serum. […] Table 9 summarizes the IC50 values derived from the three different assays. […] The relative potencies of the peptides, based on the measured ICH values, are consistent across all three assays (Peptide III˜Peptide VI˜Peptide IX>Peptide I>Parent). Based on the assay conditions used in this study, peptides inhibited C5b-9 formation with moderately better efficacy than formation of C3b, while slightly higher concentrations were necessary to inhibit AP-mediated hemolysis.

Data set [2] shares this test system. Put plainly: C5b-9 ELISA (inhibition of C5b-9 terminal complex formation). In kind it is biochemical, human. The following applies: table 13; read-out: C5b-9 ELISA IC50. As for the experimental part: as §1, §2
Data set [3] shares this test system. Put plainly: Hemolytic assay (rabbit erythrocyte lysis in human serum). To be noted: table 13; read-out: Lysis IC50. It counts as cell-based. Here is the method:
Inhibition of complement was also measured via lysis of erythrocytes. Rabbit erythrocytes (Complement Technology Inc., Tyler, Tex., USA) were washed in PBS and resuspended in veronal-buffered saline with 5 mM MgCl2 and 10 mM EGTA (VBS-MgEGTA). Peptide and serum dilutions were prepared as described above, and 1×10^7 erythrocytes were added to each serum/peptide mixture. Erythrocytes diluted in sterile deionized water and in VBS-MgEGTA were used as positive and negative controls for lysis, respectively. Plates were incubated for 20 minutes at 37° C., and centrifuged at 2500×g for 10 minutes.
In all assays, MgEGTA was used to chelate Ca′ ions required for classical/lectin pathway complement activation, while providing Mg′ necessary for AP activation. ELISAs allow for direct detection of C3b and C5b-9 formed during AP activation, while erythrocyte lysis assays provide a functional assessment of AP-mediated hemolysis in serum.

The next data set addresses hC3 (Homo sapiens, UniProt P01024). Put plainly: Activity measurements of inhibitory activity against hC3 (method not described). The following applies: relative to W4A9.
Data set [4] in a line: Experimental solubility of analogs (method not described). It counts as physicochemical. The following applies: aqueous environment.

Sequence of hC3 (P01024 23-1663): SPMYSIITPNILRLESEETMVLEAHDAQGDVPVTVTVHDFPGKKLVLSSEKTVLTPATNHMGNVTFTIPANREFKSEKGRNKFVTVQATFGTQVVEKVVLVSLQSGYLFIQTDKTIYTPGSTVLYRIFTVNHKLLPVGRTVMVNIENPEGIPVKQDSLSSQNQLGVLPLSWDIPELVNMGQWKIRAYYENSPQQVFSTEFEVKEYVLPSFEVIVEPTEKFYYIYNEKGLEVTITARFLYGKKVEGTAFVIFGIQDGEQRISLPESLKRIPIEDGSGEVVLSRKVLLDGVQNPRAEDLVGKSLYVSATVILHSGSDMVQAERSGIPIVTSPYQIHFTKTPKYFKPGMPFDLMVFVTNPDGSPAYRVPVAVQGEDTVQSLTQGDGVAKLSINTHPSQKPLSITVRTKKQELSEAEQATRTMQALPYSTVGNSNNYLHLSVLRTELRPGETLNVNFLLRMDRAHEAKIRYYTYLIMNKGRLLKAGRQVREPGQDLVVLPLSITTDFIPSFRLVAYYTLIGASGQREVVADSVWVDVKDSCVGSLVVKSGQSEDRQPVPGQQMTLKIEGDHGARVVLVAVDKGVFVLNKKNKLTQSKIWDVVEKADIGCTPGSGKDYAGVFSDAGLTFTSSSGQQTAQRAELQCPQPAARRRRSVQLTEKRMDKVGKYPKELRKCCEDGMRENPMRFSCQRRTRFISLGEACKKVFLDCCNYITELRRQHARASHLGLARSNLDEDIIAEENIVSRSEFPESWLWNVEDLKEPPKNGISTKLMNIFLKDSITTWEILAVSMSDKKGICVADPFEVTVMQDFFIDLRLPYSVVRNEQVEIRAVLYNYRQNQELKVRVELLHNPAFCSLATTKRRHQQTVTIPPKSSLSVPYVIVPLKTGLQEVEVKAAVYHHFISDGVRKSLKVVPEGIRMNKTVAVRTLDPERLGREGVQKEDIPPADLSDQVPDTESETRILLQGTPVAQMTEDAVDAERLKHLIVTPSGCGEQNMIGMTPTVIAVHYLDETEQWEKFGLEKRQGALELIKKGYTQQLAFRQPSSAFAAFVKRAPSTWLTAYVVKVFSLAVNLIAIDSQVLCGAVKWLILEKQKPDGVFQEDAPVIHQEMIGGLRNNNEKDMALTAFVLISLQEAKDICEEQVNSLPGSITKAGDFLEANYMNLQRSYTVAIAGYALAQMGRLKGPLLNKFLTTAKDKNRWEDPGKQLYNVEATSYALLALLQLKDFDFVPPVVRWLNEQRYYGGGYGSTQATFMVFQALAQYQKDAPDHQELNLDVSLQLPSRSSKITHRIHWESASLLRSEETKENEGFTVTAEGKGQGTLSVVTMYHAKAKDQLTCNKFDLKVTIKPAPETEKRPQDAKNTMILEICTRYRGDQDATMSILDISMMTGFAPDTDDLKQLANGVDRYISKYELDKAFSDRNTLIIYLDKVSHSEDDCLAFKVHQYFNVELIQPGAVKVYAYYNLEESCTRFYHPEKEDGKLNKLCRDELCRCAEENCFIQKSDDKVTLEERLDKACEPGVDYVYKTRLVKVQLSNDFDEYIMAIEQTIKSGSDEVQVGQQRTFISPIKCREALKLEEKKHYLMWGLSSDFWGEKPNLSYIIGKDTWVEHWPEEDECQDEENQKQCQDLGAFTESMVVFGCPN

As to `CC[C@H](C)[C@H](NC(=O)[C@H](CCCNC(=N)N)NC(=O)[C@H](CCC(=O)O)NC(C)=O)C(=O)N[C@H]1CSSC[C@@H](C(=O)N[C@H](C(N)=O)[C@@H](C)O)NC(=O)[C@H](CCCNC(=N)N)NC(=O)[C@H](Cc2c[nH]cn2)NC(=O)[C@H](C)NC(=O)CNC(=O)[C@H](Cc2c[nH]c3ccccc23)NC(=O)[C@H](CC(=O)O)NC(=O)[C@H](CCC(N)=O)NC(=O)[C@H](Cc2c[nH]c3ccccc23)NC(=O)[C@H](C(C)C)NC1=O` [Peptide 3.1, Ac-ER-ICV WQDWGA HRCT-NH2], the IC50 in data set [1] stood at 900 ± 100 nM; in data set [2], 500 ± 100 nM; in data set [3] it was 900 ± 200 nM.

`CC(=O)N[C@@H](CC(N)=O)C(=O)N[C@@H](CC(N)=O)C(=O)N[C@@H](CC(C)C)C(=O)N[C@H]1CSSC[C@@H](C(=O)N[C@H](C(N)=O)[C@@H](C)O)NC(=O)[C@H](CCCNC(=N)N)NC(=O)[C@H](Cc2c[nH]cn2)NC(=O)[C@H](C)NC(=O)CNC(=O)[C@H](Cc2c[nH]c3ccccc23)NC(=O)[C@H](CC(=O)O)NC(=O)[C@H](CCC(N)=O)NC(=O)[C@H](Cc2c[nH]c3ccccc23)NC(=O)[C@H](C(C)C)NC1=O` [Peptide 3.2, Ac-NN-LCV WQDWGA HRCT-NH2] (Ac-NNLCVWQDWGAHRCT-NH2; disulfide 4-14): the IC50 in data set [1] was 600 ± 100 nM; in data set [2] it was 500 ± 100 nM; in data set [3], 300 ± 100 nM.

Consider `CC(=O)N[C@@H](CC(N)=O)C(=O)N[C@@H](CCCNC(=N)N)C(=O)N[C@@H](CC(C)C)C(=O)N[C@H]1CSSC[C@@H](C(=O)N[C@H](C(N)=O)[C@@H](C)O)NC(=O)[C@H](CCCNC(=N)N)NC(=O)[C@H](Cc2c[nH]cn2)NC(=O)[C@H](C)NC(=O)CNC(=O)[C@H](Cc2c[nH]c3ccccc23)NC(=O)[C@H](CC(=O)O)NC(=O)[C@H](CCC(N)=O)NC(=O)[C@H](Cc2c[nH]c3ccccc23)NC(=O)[C@H](C(C)C)NC1=O` [Peptide 3.3, Ac-NR-LCV WQDWGA HRCT-NH2] (Ac-NRLCVWQDWGAHRCT-NH2; disulfide 4-14), for which the IC50 was found to be 600 ± 100 nM in data set [1], 500 ± 100 nM in data set [2] and 300 ± 100 nM in data set [3].

With `CC[C@H](C)[C@H](NC(=O)[C@H](CO)NC(=O)[C@H](CCCNC(=N)N)NC(C)=O)C(=O)N[C@H]1CSSC[C@@H](C(=O)N[C@H](C(N)=O)[C@@H](C)O)NC(=O)[C@H](CCCNC(=N)N)NC(=O)[C@H](Cc2c[nH]cn2)NC(=O)[C@H](C)NC(=O)CNC(=O)[C@H](Cc2c[nH]c3ccccc23)NC(=O)[C@H](CC(=O)O)NC(=O)[C@H](CCC(N)=O)NC(=O)[C@H](Cc2c[nH]c3ccccc23)NC(=O)[C@H](C(C)C)NC1=O` [Peptide 3.4, Ac-RS-ICV WQDWGA HRCT-NH2], the values for the IC50 in data set [1], in data set [2] and in data set [3] were 700 ± 100 nM, 600 ± 100 nM and 300 ± 100 nM, respectively.

Take `CC(=O)N[C@@H](Cc1c[nH]c2ccccc12)C(=O)N[C@H]1CSSC[C@@H](C(=O)N[C@@H](Cc2c[nH]c3ccccc23)C(N)=O)NC(=O)[C@H](CCCNC(=N)N)NC(=O)[C@H](Cc2c[nH]cn2)NC(=O)[C@H](C)NC(=O)CNC(=O)[C@H](Cc2c[nH]c3ccccc23)NC(=O)[C@H](CC(=O)O)NC(=O)[C@H](CCC(N)=O)NC(=O)[C@H](Cc2c[nH]c3ccccc23)NC(=O)[C@H](C(C)C)NC1=O` [Peptide W1W13] (Ac-WCVWQDWGAHRCW-NH2; disulfide 2-12): the “inhibitory activity against hC3 (in words)” value at hC3 is listed as “slightly reduced activities”. In addition, in data set [4], the “solubility (in words)” value is “slightly reduced activities and solubilities”.

For `CC(=O)N[C@@H](Cc1c[nH]c2ccccc12)C(=O)N[C@H]1CSSC[C@@H](C(=O)N[C@H](C(N)=O)[C@@H](C)O)NC(=O)[C@H](CCCNC(=N)N)NC(=O)[C@H](Cc2c[nH]cn2)NC(=O)[C@H](C)NC(=O)CNC(=O)[C@H](Cc2c[nH]c3ccccc23)NC(=O)[C@H](CC(=O)O)NC(=O)[C@H](CCC(N)=O)NC(=O)[C@H](Cc2c[nH]c3ccccc23)NC(=O)[C@H](C(C)C)NC1=O` [Peptide W1] (Ac-WCVWQDWGAHRCT-NH2; disulfide 2-12), at hC3, the “inhibitory activity against hC3 (in words)” value was “near-W4A9 inhibitory activity”. Also, in data set [4], the “solubility (in words)” value is “good solubility”.
